In patent US7026339B2, “Inhibitors of HCV NS5B polymerase” (priority 2003, dated 2006):

Each molecule was assayed on HuH-7 replicon cells 5–15 and 9–13 (HCV replication) (assay: Inhibition of viral replication in HuH-7 replicon cells (HCV RNA / GAPDH RNA by multiplex RT-PCR)). Conditions: Hepatitis C virus, 72 h; inhibiting 50% of replication; HuH-7 replicon cells, 3 days; read-out: IC50.
Assay type: cell-based
In short: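 HCV and GAPDH RNA were measured by multiplex TaqMan RT-PCR (HCV 5′ untranslated region) after 3-day compound treatment at 37 °C, final 100 μM–1 μM in 1% DMSO. Cells were plated 24 h beforehand at 7×10^3/well. Read-out: HCV-to-GAPDH ratio expressed as percent control versus untreated cells.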
`C/C(=N\NC(=O)Cc1cccc(Cl)c1)c1ccccc1OS(=O)(=O)c1ccc(C(F)(F)F)cc1` [Compound 81, 2-{(1E)-N-[(3-chlorophenyl)acetyl]ethanehydrazonoyl}-phenyl 4-(trifluoromethyl)benzenesulfonate] was tested, and the IC50 was > 50 µM.
`O=C(Cc1nc(-c2cnccn2)no1)N/N=C/c1ccccc1OS(=O)(=O)c1ccc(C(F)(F)F)cc1` [Compound 82, 2-((E)-{2-[2-(3-pyrazin-2-yl-1,2,4-oxadiazol-5-yl)acetyl]hydrazono}methyl)phenyl 4-(trifluoromethyl)benzenesulfonate] gave an IC50 of 5 to 50 µM.
In the case of `CSc1ncccc1C(=O)N/N=C/c1ccccc1OS(=O)(=O)c1ccc(C(F)(F)F)cc1` [Compound 83, 2-[(E)-(2-{[2-(methylthio)pyridin-3-yl]carbonyl}hydrazono)methyl]phenyl 4-(trifluoromethyl)benzenesulfonate], the IC50 is reported as < 5 µM.
For `O=C(CC1CCCC1)N/N=C/c1ccccc1OS(=O)(=O)c1ccc(C(F)(F)F)cc1` [Compound 84, 2-{(E)-[2-(2-cyclopentylacetyl)hydrazono]methyl}phenyl4-(trifluoromethyl)benzenesulfonate], the IC50 was < 5 µM.
`CCOc1ccccc1C(=O)N/N=C/c1ccccc1OS(=O)(=O)c1ccc(C(F)(F)F)cc1` [Compound 85, 2-{(E)-[2-(2-ethoxybenzoyl)hydrazono]methyl}phenyl4-(trifluoromethyl)benzenesulfonate] was tested, and the IC50 was > 50 µM.
For `CN(C)c1cccc(OCC(=O)N/N=C/c2ccccc2OS(=O)(=O)c2ccc(C(F)(F)F)cc2)c1` [Compound 86, 2-[(E)-(2-{2-[3-(dimethylamino)phenoxy]acetyl}hydrazono)-methyl]phenyl 4-(trifluoromethyl)benzenesulfonate], the IC50 was > 50 µM.
For `COc1ccccc1C(=O)N/N=C/c1ccccc1OS(=O)(=O)c1ccc(C(F)(F)F)cc1` [Compound 87, 2-{(E)-[2-(2-methoxybenzoyl)hydrazono]methyl}phenyl4-(trifluoromethyl)benzenesulfonate], the IC50 was > 50 µM.
With `O=C(N/N=C/c1ccccc1OS(=O)(=O)c1ccc(C(F)(F)F)cc1)c1ccccc1Br` [Compound 88, 2-{(E)-[2-(2-bromobenzoyl)hydrazono]methyl}phenyl4-(trifluoromethyl)benzenesulfonate] the IC50 was < 5 µM.
`O=C(N/N=C/c1ccccc1OS(=O)(=O)c1ccc(C(F)(F)F)cc1)c1cnccc1C(F)(F)F` [Compound 89, 2-[(E)-(2-{[4-(trifluoromethyl)pyridin-3-yl]carbonyl}hydrazono)methyl]phenyl 4-(trifluoromethyl)benzenesulfonate] was tested, and the IC50 was 5 to 50 µM.
Work on `O=C(N/N=C/c1ccccc1OS(=O)(=O)c1ccc(C(F)(F)F)cc1)c1ccccc1F` [Compound 90, 2-{(E)-[2-(2-fluorobenzoyl)hydrazono]methyl}phenyl 4-(trifluoromethyl)benzenesulfonate] yielded an IC50 of 5 to 50 µM.
`O=C(N/N=C/c1ccccc1OS(=O)(=O)c1ccc(C(F)(F)F)cc1)C1CCN(Cc2ccccc2)C1=O` (centres unmarked) [Compound 91, 2-((E)-{2-[(1-benzyl-2-oxopyrrolidin-3-yl)carbonyl]hydrazono}methyl)phenyl 4-(trifluoromethyl)benzenesulfonate] was tested, and the IC50 was > 50 µM.
Work on `Cc1ncccc1C(=O)N/N=C/c1ccccc1OS(=O)(=O)c1ccc(C(F)(F)F)cc1` [Compound 92, 2-((E)-{2-[(2-methylpyridin-3-yl)carbonyl]hydrazono}methyl)phenyl 4-(trifluoromethyl)benzenesulfonate] yielded an IC50 of 5 to 50 µM.
With `Cc1cccnc1C(=O)N/N=C/c1ccccc1OS(=O)(=O)c1ccc(C(F)(F)F)cc1` [Compound 93, 2-((E)-{2-[(3-methylpyridin-2-yl)carbonyl]hydrazono}methyl)phenyl 4-(trifluoromethyl)benzenesulfonate] the IC50 was > 50 µM.
In the case of `O=C(CC12CC3CC(CC(C3)C1)C2)N/N=C/c1ccccc1OS(=O)(=O)c1ccc(C(F)(F)F)cc1` [Compound 94, 2-((E)-{2-[2-(1-adamantyl)acetyl]hydrazono}methyl)phenyl4-(trifluoromethyl)benzenesulfonate], the IC50 is reported as > 50 µM.
`O=C(CC1CCCO1)N/N=C/c1ccccc1OS(=O)(=O)c1ccc(C(F)(F)F)cc1` (centres unmarked) [Compound 95, 2-{(E)-[2-(2-tetrahydrofuran-2-ylacetyl)hydrazono]methyl}phenyl4-(trifluoromethyl)benzenesulfonate] was tested, and the IC50 was < 5 µM.
In the case of `COc1cccc(CNc2cccc(CC(=O)N/N=C/c3ccccc3OS(=O)(=O)c3ccc(C(F)(F)F)cc3)c2)c1` [Compound 96, 2-{(E)-[2-(2-{3-[(3-methoxybenzyl)amino]phenyl}acetyl)hydrazono]methyl}phenyl 4-(trifluoromethyl)benzenesulfonate], the IC50 is reported as > 50 µM.
For `O=C(Cc1cccc(-n2cccc2)c1)N/N=C/c1ccccc1OS(=O)(=O)c1ccc(C(F)(F)F)cc1` [Compound 97, 2-[(E)-(2-{2-[3-(1H-pyrrol-1-yl)phenyl]acetyl}hydrazono)methyl]phenyl4-(trifluoromethyl)benzenesulfonate], the IC50 was > 50 µM.
`O=C(Cc1cccc(N2CCCC2)c1)N/N=C/c1ccccc1OS(=O)(=O)c1ccc(C(F)(F)F)cc1` [Compound 98, 2-((E)-{2-[2-(3-pyrrolidin-1-ylphenyl)acetyl]hydrazono}methyl)phenyl4-(trifluoromethyl)benzenesulfonate] showed an IC50 of 5 to 50 µM.
With `CC(=O)Nc1ccc(CNc2cccc(CC(=O)N/N=C/c3ccccc3OS(=O)(=O)c3ccc(C(F)(F)F)cc3)c2)cc1` [Compound 99, 2-((E)-{2-[2-(3-{[4-(acetylamino)benzyl]amino}phenyl)acetyl]-hydrazono}methyl)phenyl 4-(trifluoromethyl)benzenesulfonate] the IC50 was < 5 µM.
With `Cc1ccccc1C(=O)N/N=C/c1ccccc1OS(=O)(=O)c1ccc(C(F)(F)F)cc1` [Compound 100, 2-{(E)-[2-(2-methylbenzoyl)hydrazono]methyl}phenyl4-(trifluoromethyl)benzenesulfonate] the IC50 was < 5 µM.
`O=C(N/N=C/c1ccccc1OS(=O)(=O)c1ccc(C(F)(F)F)cc1)C1CCCCC1` [Compound 101, 2-{(E)-[2-(cyclohexylcarbonyl)hydrazono]methyl}phenyl 4-(trifluoromethyl)benzenesulfonate] was tested, and the IC50 was 5 to 50 µM.
With `O=C(N/N=C/c1ccccc1OS(=O)(=O)c1ccc(C(F)(F)F)cc1)c1c(F)cccc1F` [Compound 102, 2-{(E)-[2-(2,6-difluorobenzoyl)hydrazono]methyl}phenyl4-(trifluoromethyl)benzenesulfonate] the IC50 was < 5 µM.
In the case of `O=C(N/N=C/c1ccccc1OS(=O)(=O)c1ccc(C(F)(F)F)cc1)c1c(F)cccc1C(F)(F)F` [Compound 103, 2-((E)-{2-[2-fluoro-6-(trifluoromethyl)benzoyl]hydrazono}methyl)-phenyl 4-(trifluoromethyl)benzenesulfonate], the IC50 is reported as < 5 µM.
`O=C(N/N=C/c1ccccc1OS(=O)(=O)c1ccc(C(F)(F)F)cc1)c1ccccc1C(F)(F)F` [Compound 104, 2-((E)-{2-[2-(trifluoromethyl)benzoyl]hydrazono}methyl)-phenyl 4-(trifluoromethyl)benzenesulfonate] was tested, and the IC50 was < 5 µM.
For `CCc1ccc(S(=O)(=O)N/N=C/c2ccccc2OS(=O)(=O)c2ccc(C(F)(F)F)cc2)cc1` [Compound 105, 2-((E)-{2-[(4-ethylphenyl)sulfonyl]hydrazono}methyl)-phenyl 4-(trifluoromethyl)benzenesulfonate], the IC50 was 5 to 50 µM.
In the case of `Cn1cnc(CC(=O)N/N=C/c2ccccc2OS(=O)(=O)c2ccc(C(F)(F)F)cc2)c1` [Compound 106, 2-((E)-{2-[2-(1-methyl-1H-imidazol-4-yl)acetyl]hydrazono}methyl)phenyl 4-(trifluoromethyl)benzenesulfonate], the IC50 is reported as < 5 µM.
In the case of `O=C(Cn1c(Br)nc(Cl)c1Cl)N/N=C/c1ccccc1OS(=O)(=O)c1ccc(C(F)(F)F)cc1` [Compound 107, 2-((E)-{2-[2-(2-bromo-4,5-dichloro-1H-imidazol-1-yl)acetyl]hydrazono}methyl)phenyl 4-(trifluoromethyl)benzenesulfonate], the IC50 is reported as > 50 µM.
With `O=C(Cc1ccccc1)N/N=C/c1ccccc1OS(=O)(=O)c1ccccc1` [Compound 108, 2-{(E)-[2-(2-phenylacetyl)hydrazono]methyl}phenylbenzenesulfonate] the IC50 was > 50 µM.
`O=C(Cc1ccccc1)N/N=C/c1ccccc1OS(=O)(=O)c1cccs1` [Compound 109, 2-{(E)-[2-(2-phenylacetyl)hydrazono]methyl}phenylthiophene-2-sulfonate] was tested, and the IC50 was > 50 µM.
`Cc1ccccc1S(=O)(=O)Oc1ccccc1/C=N/NC(=O)Cc1ccccc1` [Compound 110, 2-{(E)-[2-(2-phenylacetyl)hydrazono]methyl}phenyl 2-methylbenzenesulfonate] was tested, and the IC50 was > 50 µM.
For `Cc1cccc(S(=O)(=O)Oc2ccccc2/C=N/NC(=O)Cc2ccccc2)c1` [Compound 111, 2-{(E)-[2-(2-phenylacetyl)hydrazono]methyl}phenyl 3-methylbenzenesulfonate], the IC50 was > 50 µM.
In the case of `O=C(Cc1ccccc1)N/N=C/c1ccccc1OS(=O)(=O)c1ccccc1F` [Compound 112, 2-{(E)-[2-(2-phenylacetyl)hydrazono]methyl}phenyl 2-fluorobenzenesulfonate], the IC50 is reported as > 50 µM.
`O=C(Cc1ccccc1)N/N=C/c1ccccc1OS(=O)(=O)c1cccc(F)c1` [Compound 113, 2-{(E)-[2-(2-phenylacetyl)hydrazono]methyl}phenyl 3-fluorobenzenesulfonate] was tested, and the IC50 was > 50 µM.
In the case of `N#Cc1cccc(S(=O)(=O)Oc2ccccc2/C=N/NC(=O)Cc2ccccc2)c1` [Compound 114, 2-{(E)-[2-(2-phenylacetyl)hydrazono]methyl}phenyl 3-cyanobenzenesulfonate], the IC50 is reported as > 50 µM.

Same assay, conditions: Hepatitis C virus, Huh-7, 72 h
With `O=C(CC1CC2CCC1C2)N/N=C/c1ccccc1OS(=O)(=O)c1ccc(C(F)(F)F)cc1` (centres unmarked) [Compound 80, 2-{(E)-[2-(2-bicyclo[2.2.1]hept-2-ylacetyl)hydrazono]methyl}phenyl 4-(trifluoromethyl)benzenesulfonate] the IC50 was < 5 µM.
